Values after ≈ are worked out from the molar mass of the structure shown.

Experiment [1] has as its system S. aureus ATCC 29213. Nature of the experiment: Minimum inhibitory concentration (MIC) assay, broth microdilution, MSSA. In kind it is cell-based. The following applies: Staphylococcus aureus, Table I. As to the method:
(§1) The antimicrobial activity of the compounds of the invention may be evaluated by a number of methods, including the following visual minimum inhibitory concentration (MIC) assay. This assay determines the minimum concentration of compound required to inhibit growth of a bacterial strain.
(§2) Whole-cell antibacterial activity is determined by broth microdilution using conditions recommended by the NCCLS (see National Committee for Clinical Laboratory Standards. 2001. Performance standards for antimicrobial susceptibility testing: 11th informational supplement. Vol. 21, no. 1, M100-S11. National Committee for Clinical Laboratory Standards, Wayne, Pa.). Test compounds are dissolved in DMSO and diluted 1:50 in Mueller-Hinton II broth (Becton-Dickinson) to produce a 256 μg/ml stock solution. In a 96-well microtiter plate, the compound solution is serially two-fold diluted in Mueller-Hinton II broth. After the compounds are diluted, a 50 μl aliquot of the test organism (˜1×10^6 cfu/mL) is added to each well of the microtiter plate. The final test concentrations ranges from 0.125-128 μg/mL. Inoculated plates are incubated in ambient air at 37° C. for 18 to 24 hours. The organisms selected for testing included laboratory strains S. aureus ATCC 29213 and E. coli ATCC 25922 (strains purchased from American Type Culture Collection, Manassas, Va.) m, S. aureus FQR700699, and Paeruginosa 27853. The minimum inhibitory concentration (MIC) is determined as the lowest concentration of compound that inhibited visible growth of the test organism.

Experiment [2] relates to fluoroquinolone-resistant S. aureus ATCC 700699. Nature of the experiment: Minimum inhibitory concentration (MIC) assay, broth microdilution, MRSA. The class given is cell-based. To be noted: Staphylococcus aureus; fluoroquinolone-resistant S. aureus ATCC 700699; Table I; read-out: MRSA MIC. The protocol:
as §1, §2
In general terms: Dilution methods test growth across graded concentrations, often in twofold steps.

With `CN[C@@H](C)[C@@H]1CCN(c2c(F)cc3c(=O)c4c(O)c(C#N)sc4n(C4CC4)c3c2OC)C1` [Cmp 31, 9-cyclopropyl-6-fluoro-3-hydroxyl-8-methoxy-7-((R)-3-((S)-1-(methylamino)ethyl)pyrrolidin-1-yl)-4-oxo-4,9-dihydrothieno [2,3-b]quinoline-2-carbonitrile], the minimum inhibitory concentration (MIC) (as a rule, the lowest concentration that inhibits growth of the organism) in experiment [1] was 0.03 µg/mL (≈ 0.0657 µM); in experiment [2], 0.25 µg/mL (≈ 0.548 µM).
In the same order, the values of `COc1c(N2CCN(C)CC2)c(F)cc2c(=O)c3c(O)c(C#N)sc3n(C3CC3)c12` [Cmp 26, 9-cyclopropyl-6-fluoro-3-hydroxyl-8-methoxy-7-(4-methylpiperazin-1-yl)-4-oxo-4,9-dihydrothieno[2,3-b] quinoline-2-carbonitrile] are 0.13 µg/mL (≈ 0.303 µM) and 1 µg/mL (≈ 2.33 µM).
In the case of `COc1c(N2CCCC(CN)C2)c(F)cc2c(=O)c3c(O)c(C(N)=O)sc3n(C3CC3)c12` (stereo not shown) [Cmp 65, 7-(3-(aminomethyl)piperidin-1-yl)-9-cyclopropyl-6-fluoro-3-hydroxyl-8-methoxy-4-oxo-4,9-dihydrothieno [2,3-b]quinoline-2-carboxamide], the minimum inhibitory concentration (MIC) came to 0.5 µg/mL (≈ 1.09 µM) in experiment [1] and 2 µg/mL (≈ 4.34 µM) in experiment [2].
Turning to `COc1c(C2=CCNCC2)c(F)cc2c(=O)c3c(O)c(C#N)sc3n(C3CC3)c12` [Cmp 40], the MIC in experiment [1] stood at 0.5 µg/mL (≈ 1.22 µM); in experiment [2] it was 4 µg/mL (≈ 9.72 µM).
In the same order, the values of `COc1c(N2CC[C@H](N)C2)c(F)cc2c(=O)c3c(O)c(C#N)sc3n(C3CC3)c12` [Cmp 22, (S)-7-(3-aminopyrrolidin-l-yl)-9-cyclopropyl-6-fluoro-3-hydroxyl-8-methoxy-4-oxo-4,9-dihydrothieno[2,3-b]quinoline-2-carbonitrile] are 0.03 µg/mL (≈ 0.0724 µM) and 0.25 µg/mL (≈ 0.603 µM).
For `COc1c(N2CCC(C(N)=O)CC2)c(F)cc2c(=O)c3c(n(C4CC4)c12)SC(C#N)C3=O` (stereo not shown) [Cmp 45, 1-(2-cyano-9-cyclopropyl-6-fluoro-8-methoxy-3,4-dioxo-2,3,4,9-tetrahydrothieno[2,3-b]quinolin-7-yl)piperidine-4-carboxamide], in that order: 0.03 µg/mL (≈ 0.0657 µM) and 0.5 µg/mL (≈ 1.1 µM).
For `COc1c(N2CCCC(C(N)=O)C2)c(F)cc2c(=O)c3c(O)c(C#N)sc3n(C3CC3)c12` (stereo not shown) [Cmp 37, 1-(2-cyano-9-cyclopropyl-6-fluoro-3-hydroxyl-8-methoxy-4-oxo-4,9-dihydrothieno[2,3-b]quinolin-7-yl)piperidine-3-carboxamide], in that order: 0.03 µg/mL (≈ 0.0657 µM) and 0.25 µg/mL (≈ 0.548 µM).
With `COc1c(N2CCCC(c3ncn[nH]3)C2)c(F)cc2c(=O)c3c(n(C4CC4)c12)SC(C#N)C3=O` (stereo not shown) [Cmp 53, 7-(3-(1H-1,2,4-triazol-5-yl)piperidin-1-yl)-9-cyclopropyl-6-fluoro-8-methoxy-4-dioxo-2,3,4,9-tetrahydrothieno [2,3-b]quinoline-2-carbonitrile], the MIC in experiment [1] is 0.13 µg/mL (≈ 0.271 µM); in experiment [2], 2 µg/mL (≈ 4.16 µM).
In the same order, the values of `CCN[C@@H](C)[C@@H]1CCN(c2c(F)cc3c(=O)c4c(O)c(C#N)sc4n(C4CC4)c3c2OC)C1` [Cmp 30, 9-cyclopropyl-7-((R)-3-((S)-1-(ethylamino)ethyl)pyrrolidin-1-yl)-6-fluoro-3-hydroxyl-8-methoxy-4-oxo-4,9-dihydrothieno [2,3-b]quinoline-2-carbonitrile] are 0.03 µg/mL (≈ 0.0638 µM) and 0.13 µg/mL (≈ 0.276 µM).
As to `N#Cc1sc2c(c1O)c(=O)c1cc(F)c(N3CCNCC3)cc1n2C1CC1` [Cmp 21, 9-cyclopropyl-6-fluoro-3-hydroxyl-4-oxo-7-(piperazin-1-yl)-4,9-dihydrothieno[2,3-b]quinoline-2-carbonitrile], the figures for the MIC in experiment [1] and in experiment [2] were 0.13 µg/mL (≈ 0.338 µM) and 2 µg/mL (≈ 5.2 µM), respectively.
In the same order, the values of `COc1c(N2CC[C@@H](C(C)(C)N)C2)c(F)cc2c(=O)c3c(O)c(C(N)=O)sc3n(C3CC3)c12` [Cmp 32, (R)-7-(3-(2-aminopropan-2-yl)pyrrolidin-1-yl)-9-cyclopropyl-6-fluoro-3-hydroxyl-8-methoxy-4-oxo-4,9-dihydrothieno [2,3-b]quinoline-2-carboxamide] are 0.13 µg/mL (≈ 0.274 µM) and 0.5 µg/mL (≈ 1.05 µM).
As to `CO/N=C1\CN(c2c(F)cc3c(=O)c4c(O)c(C#N)sc4n(C4CC4)c3c2OC)CC1CN` (stereo not shown) [Cmp 39, (Z)-7-(3-(aminomethyl)-4-(methoxyimino)pyrrolidin-1-yl)-9-cyclopropyl-6-fluoro-3-hydroxyl-8-methoxy-4-oxo-4,9-dihydrothieno[2,3-b]quinoline-2-carbonitrile], the MIC in experiment [1] worked out at 0.13 µg/mL (≈ 0.276 µM); in experiment [2], 1 µg/mL (≈ 2.12 µM).
`COc1c(N2CC[C@@H]([C@H](C)NCCF)C2)c(F)cc2c(=O)c3c(O)c(C#N)sc3n(C3CC3)c12` [Cmp 1, 9-cyclopropyl-6-fluoro-7-((R)-3-((S)-1-(2-fluoroethylamino)ethyl)pyrrolidin-1-yl)-3-hydroxyl-8-methoxy-4-oxo-4,9-dihydrothieno[2,3-b]quinoline-2-carbonitrile]: the MIC in experiment [1] worked out at 0.02 µg/mL (≈ 0.0409 µM); in experiment [2], 0.13 µg/mL (≈ 0.266 µM).
Regarding `COc1c(N2CC[C@@H](c3ncn[nH]3)C2)c(F)cc2c(=O)c3c(n(C4CC4)c12)SC(C#N)C3=O` (stereo partly drawn) [Cmp 44, 7-((R)-3-(1H-1,2,4-triazol-5-yl)pyrrolidin-1-yl)-9-cyclopropyl-6-fluoro-8-methoxy-3,4-dioxo-2,3,4,9-tetrahydrothieno [2,3-b]quinoline-2-carbonitrile], the MIC amounted to 0.02 µg/mL (≈ 0.0429 µM) in experiment [1] and 0.13 µg/mL (≈ 0.279 µM) in experiment [2].
For `COc1c(-c2ccnc(N3CCNCC3)c2)c(F)cc2c(=O)c3c(n(C4CC4)c12)SC(C#N)C3=O` (stereo not shown) [Cmp 50, 9-cyclopropyl-6-fluoro-8-methoxy-3,4-dioxo-7-(2-(piperazin-1-yl)pyridin-4-yl)-2,3,4,9-tetrahydrothieno [2,3-b]quinoline-2-carbonitrile], in that order: 0.06 µg/mL (≈ 0.122 µM) and 1 µg/mL (≈ 2.03 µM).
In the same order, the values of `COc1c(N2CC[C@@H]([C@H](C)N(C)C)C2)c(F)cc2c(=O)c3c(O)c(C#N)sc3n(C3CC3)c12` [Cmp 33, 9-cyclopropyl-7-((R)-3-((S)-1-(dimethylamino)ethyl)pyrrolidin-1-yl)-6-fluoro-3-hydroxyl-8-methoxy-4-oxo-4,9-dihydrothieno [2,3-b]quinoline-2-carbonitrile] are 0.06 µg/mL (≈ 0.128 µM) and 0.5 µg/mL (≈ 1.06 µM).
In the same order, the values of `COc1c(N2CC[C@H](O)C2)c(F)cc2c(=O)c3c(O)c(C#N)sc3n(C3CC3)c12` [Cmp 23, (S)-9-cyclopropyl-6-fluoro-3-hydroxyl-7-(3-hydroxyl-pyrrolidin-1-yl)-8-methoxy-4-oxo-4,9-dihydrothieno [2,3-b]quinoline-2-carbonitrile] are 0.03 µg/mL (≈ 0.0722 µM) and 0.5 µg/mL (≈ 1.2 µM).
Regarding `COC(=O)c1sc2c(c1O)c(=O)c1cc(F)c(N3CC[C@@H](C(C)(C)N)C3)c(OC)c1n2C1CC1` [Cmp 5, (R)-methyl 7-(3-(2-aminopropan-2-yl)pyrrolidin-1-yl)-9-cyclopropyl-6-fluoro-3-hydroxyl-8-methoxy-4-oxo-4,9-dihydrothieno [2,3-b]quinoline-2-carboxylate], the MIC is 2 µg/mL (≈ 4.09 µM) in experiment [1] and 64 µg/mL (≈ 131 µM) in experiment [2].
In the same order, the values of `COc1c(N2CC[C@@H](C(C)(C)N)C2)c(F)cc2c(=O)c3c(O)c([N+](=O)[O-])sc3n(C3CC3)c12` [Cmp 13, (R)-7-(3-(2-aminopropan-2-yl)pyrrolidin-1-yl)-9-cyclopropyl-6-fluoro-3-hydroxyl-8-methoxy-2-nitrothieno[2,3-b] quinolin-4(9H)-one] are 8 µg/mL (≈ 16.8 µM) and 32 µg/mL (≈ 67.2 µM).
As to `COc1c(N2CCC(C(F)(F)F)CC2)c(F)cc2c(=O)c3c(n(C4CC4)c12)SC(C#N)C3=O` (stereo not shown) [Cmp 43, 9-cyclopropyl-6-fluoro-8-methoxy-3,4-dioxo-7-(4-(trifluoromethyl)piperidin-1-yl)-2,3,4,9-tetrahydrothieno [2,3-b]quinoline-2-carbonitrile], the minimal inhibitory concentration (MIC) in experiment [1] is 1 µg/mL (≈ 2.08 µM); in experiment [2], 8 µg/mL (≈ 16.6 µM).
For `COc1c(N2C[C@@H]3CCCN[C@@H]3C2)ccc2c(=O)c3c(O)c(C#N)sc3n(C3CC3)c12` [Cmp 27, 9-cyclopropyl-3-hydroxyl-8-methoxy-4-oxo-7-((4aS,7aS)-tetrahydro-1H-pyrrolo[3,4-b]pyridin-6(2H,7H,7aH)-yl)-4,9-dihydrothieno[2,3-b]quinoline-2-carbonitrile], in that order: 0.5 µg/mL (≈ 1.15 µM) and 8 µg/mL (≈ 18.3 µM).
`COc1c(-c2ccnc(C)c2)c(F)cc2c(=O)c3c(O)c(C#N)sc3n(C3CC3)c12` [Cmp 4, 9-cyclopropyl-6-fluoro-3-hydroxyl-8-methoxy-7-(2-methylpyridin-4-yl)-4-oxo-4,9-dihydrothieno[2,3-b]quinoline-2-carbonitrile]: the MIC was found to be 0.02 µg/mL (≈ 0.0475 µM) in experiment [1] and 0.13 µg/mL (≈ 0.308 µM) in experiment [2].
For `COc1c(N2CCN(CC#N)CC2)c(F)cc2c(=O)c3c(O)c(C#N)sc3n(C3CC3)c12` [Cmp 55, 7-(4-(cyanomethyl)piperazin-1-yl)-9-cyclopropyl-6-fluoro-3-hydroxyl-8-methoxy-4-oxo-4,9-dihydrothieno [2,3-b]quinoline-2-carbonitrile], in that order: 0.06 µg/mL (≈ 0.132 µM) and 0.5 µg/mL (≈ 1.1 µM).

These data come from patent US8173636B2, “Hydroxylthienoquinolones and related compounds as anti-infective agents” (Achillion Pharmaceuticals, Inc., priority 2009, dated 2012).
